Measurements taken from EP1444982A1, “The use of purine derivatives as selective kinase inhibitors” (MERCKLE GMBH, priority 2003, dated 2004).

Tests used:
Type in all cases: biochemical
[1] = test system: ROCKII (h); test: Kinase inhibition assay (33P-ATP, P30 filter, scintillation counting): ROCK-II; conditions: 30µM Testsubstanz (100 µM ATP); 40 min
[2] = target: SAPK2a (h) (Homo sapiens, UniProt Q16539); test: Kinase inhibition assay (33P-ATP, P30 filter, scintillation counting): SAPK2a; conditions: 30µM Testsubstanz (100 µM ATP); read-out: Hemmung von Kinasen in % SAPK2a (h)
Method: (§1) Alle Kinasen werden auf zehnfache Arbeitskonzentration vor Anwendung in dem Essay verdünnt. Die Zusammensetzung des Verdünnungspuffers ist für jede Kinase in der nachfolgenden Tabelle angegeben.
(§2) Alle Substrate werden gelöst und auf eine Stammlösung in entsalztem Wasser verdünnt.
(§3) SAPK2a (h) wird in einem Endreaktionsvolumen von 25 µl mit 25 mM Tris pH 7,5, 0.02 mM EGTA, 0.33 mg/ml Myelin-Basisprotein, 10 mM MgAcetat und [γ-^33P-ATP] inkubiert (spezifische Aktivität etwa 50 cpm/pmol, Konzentration wie erforderlich). Die Reaktion wird durch Zugabe von Mg^2+[γ-^33P-ATP] initiiert. Nach 40-minütiger Inkubation bei Raumtemperatur wird die Reaktion durch Zugabe von 5 µl einer 3 %igen Phosphorsäurelösung gestoppt. 10 µl der Reaktion werden dann auf ein P30-Filter gegeben und dreimal jeweils 5 Minuten in 50 mM Phosphorsäure und einmal in Methanol gewaschen. Anschließend wird getrocknet und eine Szintillationszählung durchgeführt.

[3] = test system: PKA (h); test: Kinase inhibition assay (33P-ATP, P30 filter, scintillation counting): PKA; conditions: 30µM Testsubstanz (100 µM ATP); 40 min
[4] = target: JNK3 (r) (Rattus norvegicus, UniProt P49187); test: Kinase inhibition assay: JNK3; conditions: 30µM Testsubstanz (100 µM ATP); read-out: Hemmung von Kinasen in % JNK3 (r)
Source text: as §1, §2

[5] = target: c-RAF (h) (Homo sapiens, UniProt P04049); test: Kinase inhibition assay (33P-ATP, P30 filter, scintillation counting): c-RAF; conditions: 40 min; 30µM Testsubstanz (100 µM ATP); read-out: Hemmung von Kinasen in % c-RAF (h)
Method: as §1, §2
(§4) c-RAF (ha)(5-10 mU) in einem Endreaktionsvolumen von 25 µl wird mit 25 mM Tris pH 7.5,.0.02 mM EGTA, 0.66 mg/ml Myelin-Basisprotein, 10 mM MgAcetat und [γ-^33P-ATP] inkubiert (spezifische Aktivität etwa 50 cpm/pmol, Konzentration wie erforderlich). Die Reaktion wird durch Zugabe von Mg^2+[γ-^33P-ATP] initiiert. Nach 40-minütiger Inkubation bei Raumtemperatur wird die Reaktion durch Zugabe von 5 µl einer 3 %igen Phosphorsäurelösung gestoppt. 10 µl der Reaktion werden dann auf ein P30-Filter gegeben und dreimal jeweils 5 Minuten in 50 mM Phosphorsäure und einmal in Methanol gewaschen. Anschließend wird getrocknet und eine Szintillationszählung durchgeführt.

[6] = target: Lck (h) (Homo sapiens, UniProt P06239); test: Kinase inhibition assay (33P-ATP, P30 filter, scintillation counting): Lck; conditions: 30µM Testsubstanz (100 µM ATP); read-out: Hemmung von Kinasen in % Lck (h)
Method: as §1, §2
as §4, with “Lck (h)(5-10 mU)” for “c-RAF (ha)(5-10 mU)”, “mit 50” for “mit 25”, “pH 7.5, 0.1” for “pH 7.5,.0.02”, “EGTA, 0.1 mM NaVanadate, 250 µM KVEKIGEGTYGVVYK (Cdc2 Peptid),” for “EGTA, 0.66 mg/ml Myelin-Basisprotein,”, “etwa 500” for “etwa 50”

[7] = target: MAPK2 (h) (Homo sapiens, UniProt P28482); test: Kinase inhibition assay: MAPK2; conditions: 30µM Testsubstanz (100 µM ATP); read-out: Hemmung von Kinasen in % MAPK2 (h)
Source text: as §1, §2

[8] = target: PKB (h) (Homo sapiens, UniProt P31749); test: Kinase inhibition assay (33P-ATP, P30 filter, scintillation counting): PKB; conditions: 40 min; 30µM Testsubstanz (100 µM ATP); read-out: Hemmung von Kinasen in % PKB (h)
Method: as §1, §2
as §3, with “PKBα (h)(5-10mU) wird” for “SAPK2a (h) wird”, “mit 8” for “mit 25”, “mM MOPS” for “mM Tris”, “pH 7.0, 0.2” for “pH 7,5, 0.02”, “mM EDTRA, 30 µM GRPRTSSFAEGKK,” for “mM EGTA, 0.33 mg/ml Myelin-Basisprotein,”

[9] = target: GSK3β (h) (Homo sapiens, UniProt P49841); test: Kinase inhibition assay (33P-ATP, P30 filter, scintillation counting): GSK3β; conditions: 30µM Testsubstanz (100 µM ATP); read-out: Hemmung von Kinasen in % GSK3β (h)
Method: as §1, §2
GSK3β (h)(5-10mU) in einem Endreaktionsvolumen von 25 µl wird mit 8 mM MOPS pH 7.0, 0.2 mM EDTA, 20 µM […](p) EDEEE (phospho GS2 Peptid), 10 mM MgAcetat und [γ-^33P-ATP] inkubiert (spezifische Aktivität etwa 500 cpm/pmol, Konzentration wie erforderlich). Die Reaktion wird durch Zugabe von Mg^2+[γ-^33P-ATP] initiiert. Nach 40-minütiger Inkubation bei Raumtemperatur wird die Reaktion durch Zugabe von 5 µl einer 3 %igen Phosphorsäurelösung gestoppt. 10 µl der Reaktion werden dann auf ein P30-Filter gegeben und dreimal jeweils 5 Minuten in 50 mM Phosphorsäure und einmal in Methanol gewaschen. Anschließend wird getrocknet und eine Szintillationszählung durchgeführt.

[10] = target: MAPK1 (h) (Homo sapiens, UniProt P27361); test: Kinase inhibition assay: MAPK1; conditions: 30µM Testsubstanz (100 µM ATP); read-out: Hemmung von Kinasen in % MAPK1 (h)
Source text: as §1, §2

[11] = target: MEK1 (h) (Homo sapiens, UniProt Q02750); test: Kinase inhibition assay: MEK1 (coupled to MAPK2 assay); conditions: 30µM Testsubstanz (100 µM ATP); read-out: Hemmung von Kinasen in % MEK1 (h)
Method: as §1, §2
MEK1 (h)(1-5 mU) in einem Endreaktionsvolumen von 25 µl wird mit 50 mM Tris pH 7.5, 0.2 mM EGTA, 0.1 % b-Mercaptoethanol, 0,01 % Brij-35, 1 µM inaktives MAPK2 (m), 10 mM MgAcetat und kaltem ATP inkubiert (Konzentration wie erforderlich). Die Reaktion wird durch Zugabe von MgATB initiiert. Nach 40-minütiger Inkubation bei Raumtemperatur werden […] dieses Inkubationsgemisches dazu verwendet, den oben beschriebenen MAPK2-Assay zu initiieren.

Sequence of GSK3β (h) (P49841 whole entry): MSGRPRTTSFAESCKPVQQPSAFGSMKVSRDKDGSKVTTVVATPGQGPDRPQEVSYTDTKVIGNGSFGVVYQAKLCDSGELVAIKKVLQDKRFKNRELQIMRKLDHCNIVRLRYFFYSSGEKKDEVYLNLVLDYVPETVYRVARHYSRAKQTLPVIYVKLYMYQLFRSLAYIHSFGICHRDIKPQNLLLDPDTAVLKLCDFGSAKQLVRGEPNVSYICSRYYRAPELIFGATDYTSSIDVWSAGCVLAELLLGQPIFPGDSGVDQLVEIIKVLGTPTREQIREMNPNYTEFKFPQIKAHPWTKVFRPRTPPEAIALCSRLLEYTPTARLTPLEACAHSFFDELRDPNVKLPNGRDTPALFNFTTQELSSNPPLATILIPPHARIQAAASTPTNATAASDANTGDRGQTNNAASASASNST
Sequence of c-RAF (h) (P04049 whole entry): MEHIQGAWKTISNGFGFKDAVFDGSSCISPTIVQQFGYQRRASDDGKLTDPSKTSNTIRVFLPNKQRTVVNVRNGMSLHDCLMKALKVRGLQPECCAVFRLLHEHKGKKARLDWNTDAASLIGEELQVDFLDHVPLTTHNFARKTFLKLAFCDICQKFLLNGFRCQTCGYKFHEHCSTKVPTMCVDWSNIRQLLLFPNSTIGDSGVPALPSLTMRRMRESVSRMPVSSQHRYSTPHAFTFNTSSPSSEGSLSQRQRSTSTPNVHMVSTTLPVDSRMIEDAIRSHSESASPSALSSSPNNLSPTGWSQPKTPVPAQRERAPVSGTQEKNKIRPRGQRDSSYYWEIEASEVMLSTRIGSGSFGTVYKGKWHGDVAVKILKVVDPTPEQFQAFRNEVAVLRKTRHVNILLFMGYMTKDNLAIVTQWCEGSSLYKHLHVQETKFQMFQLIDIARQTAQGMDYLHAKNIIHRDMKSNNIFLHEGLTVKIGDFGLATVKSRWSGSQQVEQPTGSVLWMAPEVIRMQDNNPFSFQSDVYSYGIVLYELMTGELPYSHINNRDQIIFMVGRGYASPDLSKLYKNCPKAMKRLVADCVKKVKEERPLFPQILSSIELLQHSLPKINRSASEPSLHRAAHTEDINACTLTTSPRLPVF
Sequence of SAPK2a (h) (Q16539 whole entry): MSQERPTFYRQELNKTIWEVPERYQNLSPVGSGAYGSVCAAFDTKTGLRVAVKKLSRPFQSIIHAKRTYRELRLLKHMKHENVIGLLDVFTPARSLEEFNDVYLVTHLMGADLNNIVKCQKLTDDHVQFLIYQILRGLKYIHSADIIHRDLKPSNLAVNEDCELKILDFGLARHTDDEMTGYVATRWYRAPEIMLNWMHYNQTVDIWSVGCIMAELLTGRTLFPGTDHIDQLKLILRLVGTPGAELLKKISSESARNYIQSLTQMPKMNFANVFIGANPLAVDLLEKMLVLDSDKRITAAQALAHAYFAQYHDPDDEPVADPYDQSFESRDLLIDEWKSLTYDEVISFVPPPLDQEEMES
Sequence of MEK1 (h) (Q02750 whole entry): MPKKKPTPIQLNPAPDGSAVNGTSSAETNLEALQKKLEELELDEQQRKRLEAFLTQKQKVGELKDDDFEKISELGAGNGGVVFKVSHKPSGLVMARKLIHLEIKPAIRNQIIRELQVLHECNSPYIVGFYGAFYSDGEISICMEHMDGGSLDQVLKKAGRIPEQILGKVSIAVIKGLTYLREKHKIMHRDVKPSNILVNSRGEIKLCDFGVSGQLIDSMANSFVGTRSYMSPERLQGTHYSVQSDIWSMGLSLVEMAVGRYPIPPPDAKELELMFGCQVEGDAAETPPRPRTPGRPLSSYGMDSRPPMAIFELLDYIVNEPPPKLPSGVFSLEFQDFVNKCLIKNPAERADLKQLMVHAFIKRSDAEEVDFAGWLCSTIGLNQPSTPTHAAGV
Sequence of MAPK1 (h) (P27361 whole entry): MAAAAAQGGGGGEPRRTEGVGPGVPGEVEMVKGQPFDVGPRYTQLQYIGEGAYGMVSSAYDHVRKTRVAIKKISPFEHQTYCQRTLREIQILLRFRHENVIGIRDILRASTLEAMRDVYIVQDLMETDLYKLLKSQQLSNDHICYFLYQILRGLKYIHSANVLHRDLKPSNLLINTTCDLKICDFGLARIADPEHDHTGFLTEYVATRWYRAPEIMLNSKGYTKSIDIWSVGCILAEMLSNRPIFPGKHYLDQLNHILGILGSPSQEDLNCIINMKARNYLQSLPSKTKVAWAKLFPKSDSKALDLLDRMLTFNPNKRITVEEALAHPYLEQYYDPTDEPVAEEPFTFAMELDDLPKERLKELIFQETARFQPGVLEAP
Sequence of JNK3 (r) (P49187 whole entry): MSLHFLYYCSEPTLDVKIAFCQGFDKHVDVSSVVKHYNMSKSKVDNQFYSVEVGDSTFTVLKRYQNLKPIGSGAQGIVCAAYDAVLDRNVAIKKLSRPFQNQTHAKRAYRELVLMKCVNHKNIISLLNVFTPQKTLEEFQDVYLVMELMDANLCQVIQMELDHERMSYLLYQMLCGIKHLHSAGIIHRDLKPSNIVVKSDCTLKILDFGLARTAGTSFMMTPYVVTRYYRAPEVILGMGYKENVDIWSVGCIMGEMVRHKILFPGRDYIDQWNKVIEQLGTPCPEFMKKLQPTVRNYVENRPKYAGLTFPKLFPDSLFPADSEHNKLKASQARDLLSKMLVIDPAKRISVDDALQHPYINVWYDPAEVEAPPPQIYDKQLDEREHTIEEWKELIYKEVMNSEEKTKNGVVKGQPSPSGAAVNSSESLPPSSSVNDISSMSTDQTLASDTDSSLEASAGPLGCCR
Sequence of Lck (h) (P06239 whole entry): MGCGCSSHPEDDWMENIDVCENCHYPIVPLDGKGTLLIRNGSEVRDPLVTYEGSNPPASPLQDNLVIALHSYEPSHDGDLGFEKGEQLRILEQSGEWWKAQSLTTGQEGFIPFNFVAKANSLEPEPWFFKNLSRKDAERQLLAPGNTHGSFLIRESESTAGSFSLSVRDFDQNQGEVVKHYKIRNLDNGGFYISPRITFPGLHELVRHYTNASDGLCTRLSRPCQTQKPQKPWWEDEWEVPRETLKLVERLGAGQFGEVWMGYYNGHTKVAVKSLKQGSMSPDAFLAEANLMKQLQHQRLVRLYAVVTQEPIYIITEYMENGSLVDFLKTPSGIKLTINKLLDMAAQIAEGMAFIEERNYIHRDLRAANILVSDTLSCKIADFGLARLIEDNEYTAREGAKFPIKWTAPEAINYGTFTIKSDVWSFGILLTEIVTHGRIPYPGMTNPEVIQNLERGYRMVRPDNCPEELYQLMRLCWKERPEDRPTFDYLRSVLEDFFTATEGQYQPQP
Sequence of MAPK2 (h) (P28482 whole entry): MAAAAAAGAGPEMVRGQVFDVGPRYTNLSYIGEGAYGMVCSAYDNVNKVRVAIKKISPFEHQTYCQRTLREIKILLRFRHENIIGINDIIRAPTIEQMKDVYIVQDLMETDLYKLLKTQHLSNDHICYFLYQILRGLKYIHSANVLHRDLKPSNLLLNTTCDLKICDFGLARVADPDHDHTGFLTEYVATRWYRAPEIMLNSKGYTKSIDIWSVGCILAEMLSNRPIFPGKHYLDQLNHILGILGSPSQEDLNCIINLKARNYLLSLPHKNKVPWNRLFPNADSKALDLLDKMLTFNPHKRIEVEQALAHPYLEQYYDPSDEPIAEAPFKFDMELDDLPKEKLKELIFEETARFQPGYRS
Sequence of PKB (h) (P31749 whole entry): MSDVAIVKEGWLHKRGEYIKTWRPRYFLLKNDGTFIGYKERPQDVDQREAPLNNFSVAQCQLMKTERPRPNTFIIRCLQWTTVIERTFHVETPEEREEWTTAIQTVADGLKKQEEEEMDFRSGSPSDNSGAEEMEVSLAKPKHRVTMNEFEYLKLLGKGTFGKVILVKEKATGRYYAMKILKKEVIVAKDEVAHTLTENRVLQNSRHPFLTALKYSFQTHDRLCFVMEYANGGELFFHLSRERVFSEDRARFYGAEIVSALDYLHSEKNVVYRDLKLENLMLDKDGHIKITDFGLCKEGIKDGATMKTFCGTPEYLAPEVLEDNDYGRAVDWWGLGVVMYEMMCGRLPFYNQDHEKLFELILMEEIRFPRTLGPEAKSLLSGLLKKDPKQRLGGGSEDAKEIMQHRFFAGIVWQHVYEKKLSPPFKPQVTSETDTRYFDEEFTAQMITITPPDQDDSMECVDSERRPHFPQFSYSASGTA

| SMILES | Hemmung von Kinasen in % ROCKII (h) [1] [%] | inhibition at 30 µM [2] [%] | Hemmung von Kinasen in % PKA (h) [3] [%] | inhibition at 30 µM [4] [%] | inhibition at 30 µM [5] [%] | inhibition at 30 µM [6] [%] | inhibition at 30 µM [7] [%] | inhibition at 30 µM [8] [%] | inhibition at 30 µM [9] [%] | inhibition at 30 µM [10] [%] | inhibition at 30 µM [11] [%] |
| --- | --- | --- | --- | --- | --- | --- | --- | --- | --- | --- | --- |
| Fc1ccc(Cn2cnc3c(Sc4ccc(F)cc4)ncnc32)cc1 [Verbd. 77, 9-(4-Fluoro-benzyl)-6-(4-fluoro-phenylsulfanyl)-9H-purin] | 0 | 27 | 0 | 0 | 0 | 16 | 0 | 0 | 8 | 6 | 3 |
| c1ccc(Cn2cnc3c(Sc4ccccc4)ncnc32)cc1 [Verbd. 74, 9-Benzyl-6-phenylsulfanyl-9H-purin] | 1 | 64 | 0 | 0 | 0 | 0 | 0 | 1 | 1 | 0 | 6 |
